Laboratory results from PubChem BioAssay AID248 (DTP/NCI, 2004).
“And” between values parts separate entries of the source, which are not always exact repeats. Equal values may be shown once. Toxic doses and inconclusive results are not listed.

Tested on: L1210 leukemia ip in BDF1 mice, survival T/C
Assay: NCI In Vivo Anticancer Drug Screen. Data for tumor model L1210 Leukemia (intraperitoneal) in B6D2F1 (BDF1) mice
Details: endpoint: mean survival time, higher = longer survival
Outline: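 Tumor cells were implanted, animals were treated, and survival was followed. The result divides the treated measurement by the vehicle-control measurement.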

[1] = dose: 75.0 mg/kg/injection, schedule: Q01DX001 (ip), vehicle: saline
[2] = dose: 100.0 mg/kg/injection, schedule: Q01DX009 (ip), vehicle: saline with Tween-80
[3] = dose: 100.0 mg/kg/injection, schedule: Q04DX002 (ip), vehicle: saline with Tween-80
[4] = dose: 200.0 mg/kg/injection, schedule: Q04DX002 (ip), vehicle: saline with Tween-80
[5] = dose: 100.0 mg/kg/injection, schedule: Q01DX009 (ip), vehicle: Klucel (hydroxypropylcellulose) (HPC)
[6] = dose: 200.0 mg/kg/injection, schedule: Q01DX009 (ip), vehicle: Klucel (hydroxypropylcellulose) (HPC)
[7] = dose: 400.0 mg/kg/injection, schedule: Q01DX009 (ip), vehicle: Klucel (hydroxypropylcellulose) (HPC)
[8] = dose: 100.0 mg/kg/injection, schedule: Q04DX003 (ip), vehicle: saline
[9] = dose: 200.0 mg/kg/injection, schedule: Q04DX003 (ip), vehicle: saline
[10] = dose: 400.0 mg/kg/injection, schedule: Q04DX003 (ip), vehicle: saline
[11] = dose: 100.0 mg/kg/injection, schedule: Q01DX001 (ip), vehicle: Klucel (hydroxypropylcellulose) (HPC)
[12] = dose: 100.0 mg/kg/injection, schedule: Q04DX003 (ip), vehicle: Klucel (hydroxypropylcellulose) (HPC)
[13] = dose: 200.0 mg/kg/injection, schedule: Q01DX001 (ip), vehicle: Klucel (hydroxypropylcellulose) (HPC)
[14] = dose: 200.0 mg/kg/injection, schedule: Q04DX003 (ip), vehicle: Klucel (hydroxypropylcellulose) (HPC)
[15] = dose: 400.0 mg/kg/injection, schedule: Q01DX001 (ip), vehicle: Klucel (hydroxypropylcellulose) (HPC)
[16] = dose: 400.0 mg/kg/injection, schedule: Q04DX003 (ip), vehicle: Klucel (hydroxypropylcellulose) (HPC)

COc1cc2c(cc1OC)-c1c([O-])c3cc(OC)c(OC)cc3n[n+]1CC2
T/C [1]: 98 % of control | T/C (dose: 150.0 mg/kg/injection, schedule: Q01DX001 (ip), vehicle: saline): 86 % of control | T/C (dose: 300.0 mg/kg/injection, schedule: Q01DX001 (ip), vehicle: saline): 89 % of control

Oc1ccccc1C1CC2CCC1C2 (stereo unspecified)
T/C (dose: 50.0 mg/kg/injection, schedule: Q04DX002 (ip), vehicle: saline with Tween-80): 106 % of control | T/C [2]: 107 % of control | T/C [3]: 103 % of control | T/C [4]: 100 % of control

O=C(O)CC(=O)c1ccc(I)cc1
T/C [1]: 94 % of control

CCCCC(NC(=O)C(F)(F)F)C(=O)O (stereo unspecified)
T/C (dose: 100.0 mg/kg/injection, schedule: Q01DX009 (ip), vehicle: carboxymethylcellulose (CMC)): 105 % of control | T/C (dose: 200.0 mg/kg/injection, schedule: Q01DX009 (ip), vehicle: carboxymethylcellulose (CMC)): 96 % of control

O=C(CCCC(=O)N/N=C/c1c(O)ccc2ccccc12)N/N=C/c1c(O)ccc2ccccc12
T/C (dose: 50.0 mg/kg/injection, schedule: Q01DX001 (ip), vehicle: saline): 96 % of control | T/C (dose: 100.0 mg/kg/injection, schedule: Q01DX001 (ip), vehicle: saline): 96 % of control | T/C (dose: 200.0 mg/kg/injection, schedule: Q01DX001 (ip), vehicle: saline): 96 % of control | T/C (dose: 400.0 mg/kg/injection, schedule: Q01DX001 (ip), vehicle: saline): 93 % of control

NC(=O)c1ccccc1NC(=O)c1ccccc1Cl
T/C [5]: 102 % of control | T/C [6]: 100 % of control | T/C [7]: 93 % of control

O=c1ncc2[nH]c(I)nc2[nH]1
T/C (dose: 100.0 mg/kg/injection, schedule: Q01DX001 (ip), vehicle: carboxymethylcellulose (CMC)): 96 % of control

O=COCC1CC2C=CC1C2 (stereo unspecified)
T/C (dose: 222.0 mg/kg/injection, schedule: Q01DX Z (ip), vehicle: saline): 98 % of control | T/C (dose: 333.0 mg/kg/injection, schedule: Q01DX Z (ip), vehicle: saline): 102 % of control | T/C (dose: 500.0 mg/kg/injection, schedule: Q01DX Z (ip), vehicle: saline): 97 % of control

N#CCCn1cnc2c(N)ncnc21
T/C [2]: 96 % of control | T/C (dose: 100.0 mg/kg/injection, schedule: Q04DX003 (ip), vehicle: saline with Tween-80): 103 % of control | T/C (dose: 200.0 mg/kg/injection, schedule: Q01DX009 (ip), vehicle: saline with Tween-80): 96 % of control | T/C (dose: 200.0 mg/kg/injection, schedule: Q04DX003 (ip), vehicle: saline with Tween-80): 103 % of control | T/C (dose: 400.0 mg/kg/injection, schedule: Q01DX009 (ip), vehicle: saline with Tween-80): 91 % of control | T/C (dose: 400.0 mg/kg/injection, schedule: Q04DX003 (ip), vehicle: saline with Tween-80): 104 % of control

CC12CCC(Cl)CC1=CCC1C2CCC2(C)c3nc(N)ncc3CC12 (stereo unspecified)
T/C (dose: 100.0 mg/kg/injection, schedule: Q04DX003 (sc), vehicle: gum acacia): 101 % of control | T/C (dose: 200.0 mg/kg/injection, schedule: Q04DX003 (sc), vehicle: gum acacia): 92 % of control | T/C (dose: 400.0 mg/kg/injection, schedule: Q04DX003 (sc), vehicle: gum acacia): 103 % of control

CC1=C/C(=N\N2CCOCC2)C(C(O)(C(F)(F)F)C(F)(F)F)C(C)(C)C1 (stereo unspecified)
T/C [8]: 98 % of control | T/C [9]: 98 % of control | T/C [10]: 96 % of control

Cc1cccc(NC(=O)Nc2cc(C)on2)c1
T/C [11]: 100 % of control | T/C [5]: 91 % of control | T/C (dose: 100.0 mg/kg/injection, schedule: Q04DX002 (ip), vehicle: Klucel (hydroxypropylcellulose) (HPC)): 98 % of control and 102 % of control | T/C [12]: 92 % of control | T/C [13]: 95 % of control | T/C [6]: 94 % of control and 91 % of control | T/C (dose: 200.0 mg/kg/injection, schedule: Q04DX002 (ip), vehicle: Klucel (hydroxypropylcellulose) (HPC)): 94 % of control and 98 % of control | T/C [14]: 93 % of control | T/C [15]: 95 % of control | T/C [7]: 100 % of control and 91 % of control | T/C (dose: 400.0 mg/kg/injection, schedule: Q04DX002 (ip), vehicle: Klucel (hydroxypropylcellulose) (HPC)): 98 % of control and 109 % of control | T/C [16]: 93 % of control

O=C(N/N=C/c1ccccc1)c1ccc(Cl)c(Cl)c1
T/C (dose: 100.0 mg/kg/injection, schedule: Q04DX003 (ip), vehicle: other): 100 % of control | T/C (dose: 200.0 mg/kg/injection, schedule: Q04DX003 (ip), vehicle: other): 92 % of control | T/C (dose: 400.0 mg/kg/injection, schedule: Q04DX003 (ip), vehicle: other): 89 % of control

O=C(c1ccccc1)C(Br)S(=O)(=O)C(Br)C(=O)c1ccccc1 (stereo unspecified)
T/C [8]: 107 % of control | T/C [9]: 107 % of control | T/C [10]: 109 % of control

OCc1cc2ccccc2c2ccccc12
T/C (dose: 222.0 mg/kg/injection, schedule: Q01DX Z (ip), vehicle: carboxymethylcellulose (CMC)): 96 % of control | T/C (dose: 330.0 mg/kg/injection, schedule: Q01DX Z (ip), vehicle: carboxymethylcellulose (CMC)): 90 % of control | T/C (dose: 500.0 mg/kg/injection, schedule: Q01DX Z (ip), vehicle: carboxymethylcellulose (CMC)): 93 % of control | T/C (dose: 750.0 mg/kg/injection, schedule: Q01DX Z (ip), vehicle: carboxymethylcellulose (CMC)): 88 % of control

CS(=O)(=O)OC1CCC(OS(C)(=O)=O)CC1 (stereo unspecified)
T/C (dose: 100.0 mg/kg/injection, schedule: Q01DX001 (ip), vehicle: saline with Tween-80): 103 % of control | T/C (dose: 200.0 mg/kg/injection, schedule: Q01DX001 (ip), vehicle: saline with Tween-80): 100 % of control | T/C (dose: 400.0 mg/kg/injection, schedule: Q01DX001 (ip), vehicle: saline with Tween-80): 100 % of control

CCOC(=O)C(C(=S)Nc1ccccc1)=S(C)C
T/C [3]: 87 % of control | T/C [4]: 87 % of control | T/C (dose: 400.0 mg/kg/injection, schedule: Q04DX002 (ip), vehicle: saline with Tween-80): 91 % of control

CCNc1c([N+](=O)[O-])cc(S(=O)(=O)O)cc1[N+](=O)[O-]
T/C [8]: 116 % of control | T/C [9]: 105 % of control | T/C [10]: 95 % of control

COc1ccc(OCCS(=O)(=O)C(CCOS(C)(=O)=O)COS(C)(=O)=O)cc1 (stereo unspecified)
T/C [5]: 96 % of control | T/C [6]: 93 % of control | T/C [7]: 98 % of control

Oc1c(Br)cc(Br)cc1/C=N/N=C/c1cc(Br)cc(Br)c1O
T/C [11]: 90 % of control | T/C [5]: 98 % of control | T/C [12]: 90 % of control | T/C [13]: 90 % of control | T/C [14]: 97 % of control | T/C [15]: 90 % of control | T/C [7]: 88 % of control | T/C [16]: 94 % of control

COc1cc(N=Nc2ccc([N+](=O)[O-])cc2C)ccc1N
T/C (dose: 100.0 mg/kg/injection, schedule: Q01DX001 (ip), vehicle: other): 97 % of control | T/C (dose: 200.0 mg/kg/injection, schedule: Q01DX001 (ip), vehicle: other): 97 % of control | T/C (dose: 400.0 mg/kg/injection, schedule: Q01DX001 (ip), vehicle: other): 86 % of control

Cc1c(NC(=O)Nc2ccc(C3=NCCN3)cc2)cccc1NC(=O)Nc1ccc(C2=NCCN2)cc1
T/C (dose: 0.62 mg/kg/injection, schedule: Q01DX Z (ip), vehicle: carboxymethylcellulose (CMC)): 92 % of control | T/C (dose: 1.25 mg/kg/injection, schedule: Q01DX Z (ip), vehicle: carboxymethylcellulose (CMC)): 98 % of control | T/C (dose: 2.5 mg/kg/injection, schedule: Q01DX Z (ip), vehicle: carboxymethylcellulose (CMC)): 102 % of control | T/C (dose: 8.5 mg/kg/injection, schedule: Q01DX Z (oral), vehicle: carboxymethylcellulose (CMC)): 109 % of control | T/C (dose: 9.0 mg/kg/injection, schedule: Q01DX Z (ip), vehicle: water): 205 % of control | T/C (dose: 13.5 mg/kg/injection, schedule: Q01DX Z (oral), vehicle: carboxymethylcellulose (CMC)): 121 % of control | T/C (dose: 18.0 mg/kg/injection, schedule: Q01DX Z (ip), vehicle: water): 160 % of control | T/C (dose: 20.0 mg/kg/injection, schedule: Q01DX Z (oral), vehicle: carboxymethylcellulose (CMC)): 111 % of control | T/C (dose: 30.0 mg/kg/injection, schedule: Q01DX Z (oral), vehicle: carboxymethylcellulose (CMC)): 109 % of control | T/C (dose: 36.0 mg/kg/injection, schedule: Q01DX Z (ip), vehicle: water): 111 % of control | T/C (dose: 45.0 mg/kg/injection, schedule: Q01DX Z (oral), vehicle: carboxymethylcellulose (CMC)): 114 % of control | T/C (dose: 62.0 mg/kg/injection, schedule: Q01DX Z (ip), vehicle: saline): 124 % of control | T/C (dose: 125.0 mg/kg/injection, schedule: Q01DX Z (ip), vehicle: saline): 96 % of control
